Common to all, as to format: cell-based
The target of test [1] is T1, pERK1/2 (Thr202/Tyr204), NCI-1H358 (KRAS G12C) (Homo sapiens, UniProt P01116, G12C).
T1 construct: pERK1/2 HTRF read-out
Put plainly: Assay of intracellular pERK1/2 (Thr202/Tyr204) phosphorylation in NCI-H358 cells (KRAS G12C). As to conditions: pERK1/2, 2 days, read-out: NCI-H358 (KRAS G12C) IC50. Summed up:
(§1)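 Cells (10000-12000/well) exposed to 3-fold compound dilutions for 2 days at 37 °C, then lysed; pERK1/2 (Thr202/Tyr204) measured by HTRF with d2 and cryptate antibodies, 665/615 nm ratio.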

Test [2] concerns the target T2, pERK1/2 (Thr202/Tyr204), PANC-1 (KRAS G121D) (Homo sapiens, UniProt P01116, G12D).
T2 construct: pERK1/2 HTRF read-out
Put plainly: Assay of intracellular pERK1/2 (Thr202/Tyr204) phosphorylation in PANC-1 cells (KRAS G12D). As to conditions: pERK1/2, 2 days, read-out: PANC-1 (KRAS G12D) IC50. The essentials: as §1

For test [3], the target named is T3, pERK1/2 (Thr202/Tyr204), NCI-1H441 (KRAS G12V) (Homo sapiens, UniProt P01116, G12V).
T3 construct: pERK1/2 HTRF read-out
Put plainly: Assay of intracellular pERK1/2 (Thr202/Tyr204) phosphorylation in NCI-H441 cells (KRAS G12V). As to conditions: pERK1/2, 2 days, read-out: NCI-H441 (KRAS G12V) IC50. The essentials:
as §1

The text below walks through data of patent US20260356851A1, “TRICYCLIC COMPOUNDS AND USES THEREOF” (HUTCHMED LIMITED, priority 2023, published 2026).

As usually defined, the IC50 is the concentration at which inhibition is half-maximal.

T3 sequence (P01116 1-188 isoform P01116-2 G12V): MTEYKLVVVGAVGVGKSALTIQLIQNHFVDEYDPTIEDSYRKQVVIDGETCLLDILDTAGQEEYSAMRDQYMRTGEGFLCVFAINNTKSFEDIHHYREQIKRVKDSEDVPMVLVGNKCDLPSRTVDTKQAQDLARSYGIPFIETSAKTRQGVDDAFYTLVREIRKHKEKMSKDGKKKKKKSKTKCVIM
T1 sequence (P01116 1-188 isoform P01116-2 G12C): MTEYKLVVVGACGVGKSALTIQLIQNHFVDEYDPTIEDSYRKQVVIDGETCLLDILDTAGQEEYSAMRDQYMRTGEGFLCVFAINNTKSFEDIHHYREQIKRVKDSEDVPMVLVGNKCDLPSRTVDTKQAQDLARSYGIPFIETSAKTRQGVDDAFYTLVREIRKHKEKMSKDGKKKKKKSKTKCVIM
T2 sequence (P01116 1-188 isoform P01116-2 G12D): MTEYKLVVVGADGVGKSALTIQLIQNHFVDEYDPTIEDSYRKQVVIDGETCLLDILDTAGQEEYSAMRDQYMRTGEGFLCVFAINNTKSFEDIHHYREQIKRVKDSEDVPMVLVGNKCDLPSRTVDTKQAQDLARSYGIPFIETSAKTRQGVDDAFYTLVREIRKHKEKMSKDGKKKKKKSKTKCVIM

Regarding `Cc1ccnc(N)c1C(C)N1CCOc2nc(-c3cc(N)c(F)c(C)c3C(F)(F)F)c(F)c3nc(OC[C@@]45CCCN4C[C@H](F)C5)nc1c23` (single isomer, unassigned) [Compound 257, 3-((R or S)-1-(5-(5-amino-4-fluoro-3-methyl-2-(trifluoromethyl)phenyl)-4-fluoro-2-(((2R,7aS)-2-fluorotetrahydro-1H-pyrrolizin-7a(5H)-yl)methoxy)-8,9-dihydro-10H-7-oxa-1,3,6,10-tetraazacyclohepta[de]naphthalen-10-yl)ethyl)-4-methylpyridin-2-amine], the IC50 amounted to 0.002 µM in test [1], 0.051 µM in test [2] and 0.006 µM in test [3].

On to `Cc1ccnc(N)c1C(C)N1CCOc2nc(-c3cc(N)c(F)c(C)c3C(F)(F)F)c(F)c3nc(OC[C@@]45CCCN4C[C@H](F)C5)nc1c23` (single isomer, unassigned) [Compound 258, 3-((R or S)-1-(5-(5-amino-4-fluoro-3-methyl-2-(trifluoromethyl)phenyl)-4-fluoro-2-(((2R,7aS)-2-fluorotetrahydro-1H-pyrrolizin-7a(5H)-yl)methoxy)-8,9-dihydro-10H-7-oxa-1,3,6,10-tetraazacyclohepta[de]naphthalen-10-yl)ethyl)-4-methylpyridin-2-amine], for which the IC50 in test [1], in test [2] and in test [3] was above 0.1 µM each time.

Take `Cc1c(F)c(N)cc(-c2nc3c4c(nc(OC[C@@]56CCCN5C[C@H](F)C6)nc4c2F)N([C@H](C)c2cn(C)nc2N)CCO3)c1C(F)(F)F` (single isomer, unassigned) [Compound 260, 4-((R or S)-1-(5-(5-amino-4-fluoro-3-methyl-2-(trifluoromethyl)phenyl)-4-fluoro-2-(((2R,7aS)-2-fluorotetrahydro-1H-pyrrolizin-7a(5H)-yl)methoxy)-8,9-dihydro-10H-7-oxa-1,3,6,10-tetraazacyclohepta[de]naphthalen-10-yl)ethyl)-1-methyl-1H-pyrazol-3-amine]: the values for the IC50 in test [1], in test [2] and in test [3] were 0.03 µM, above 0.1 µM and 0.065 µM, respectively.

Consider `Cc1c(F)c(N)cc(-c2nc3c4c(nc(OC[C@@]56CCCN5C[C@H](F)C6)nc4c2F)N(C(C)c2cn(C)nc2N)CCO3)c1C(F)(F)F` (single isomer, unassigned) [Compound 261, 4-((R or S)-1-(5-(5-amino-4-fluoro-3-methyl-2-(trifluoromethyl)phenyl)-4-fluoro-2-(((2R,7aS)-2-fluorotetrahydro-1H-pyrrolizin-7a(5H)-yl)methoxy)-8,9-dihydro-10H-7-oxa-1,3,6,10-tetraazacyclohepta[de]naphthalen-10-yl)ethyl)-1-methyl-1H-pyrazol-3-amine], for which the half-maximal inhibitory concentration (IC50) in test [1], in test [2] and in test [3] was above 0.1 µM in each case.

On to `Cc1c(F)c(N)cc(-c2nc3c4c(nc(OC[C@@]56CCCN5C[C@H](F)C6)nc4c2F)N(C(C)c2cccnc2N)[C@@H](C)CO3)c1C(F)(F)F` (single isomer, unassigned) [Compound 263, 3-((R or S)-1-((S)-5-(5-amino-4-fluoro-3-methyl-2-(trifluoromethyl)phenyl)-4-fluoro-2-(((2R,7aS)-2-fluorotetrahydro-1H-pyrrolizin-7a(5H)-yl)methoxy)-9-methyl-8,9-dihydro-10H-7-oxa-1,3,6,10-tetraazacyclohepta[de]naphthalen-10-yl)ethyl)pyridin-2-amine], for which the IC50 is 0.014 µM in test [1], 0.035 µM in test [2] and 0.04 µM in test [3].

Regarding `CNc1ncccc1C(C)N1CCOc2nc(-c3cc(N)c(F)c(C)c3C(F)(F)F)c(F)c3nc(OC[C@@]45CCCN4C[C@H](F)C5)nc1c23` (single isomer, unassigned) [Compound 264, 3-((R or S)-1-(5-(5-amino-4-fluoro-3-methyl-2-(trifluoromethyl)phenyl)-4-fluoro-2-(((2R,7aS)-2-fluorotetrahydro-1H-pyrrolizin-7a(5H)-yl)methoxy)-8,9-dihydro-10H-7-oxa-1,3,6,10-tetraazacyclohepta[de]naphthalen-10-yl)ethyl)-N-methylpyridin-2-amine], the values for the IC50 in test [1], in test [2] and in test [3] were 0.093 µM, above 0.1 µM and above 0.1 µM, respectively.

As for `CNc1ncccc1C(C)N1CCOc2nc(-c3cc(N)c(F)c(C)c3C(F)(F)F)c(F)c3nc(OC[C@@]45CCCN4C[C@H](F)C5)nc1c23` (single isomer, unassigned) [Compound 265, 3-((R or S)-1-(5-(5-amino-4-fluoro-3-methyl-2-(trifluoromethyl)phenyl)-4-fluoro-2-(((2R,7aS)-2-fluorotetrahydro-1H-pyrrolizin-7a(5H)-yl)methoxy)-8,9-dihydro-10H-7-oxa-1,3,6,10-tetraazacyclohepta[de]naphthalen-10-yl)ethyl)-N-methylpyridin-2-amine], the IC50 in test [1], in test [2] and in test [3] was above 0.1 µM each time.

Take `Cc1cc(N)cc(-c2nc3c4c(nc(OC[C@@]56CCCN5C[C@H](F)C6)nc4c2F)N(C(C)c2cccnc2N)[C@@H](C)CO3)c1C(F)(F)F` (single isomer, unassigned) [Compound 267]: the IC50 in test [1] was found to be 0.0003 µM; in test [2] it was 0.0002 µM; in test [3] it was 0.0006 µM.

For `CC(c1cccnc1N)N1c2nc(OC[C@@]34CCCN3C[C@H](F)C4)nc3c(F)c(-c4cc(N)c(F)c(Cl)c4C(F)(F)F)nc(c23)OC[C@@H]1C` (single isomer, unassigned) [Compound 269, 3-((R or S)-1-((S)-5-(5-amino-3-chloro-4-fluoro-2-(trifluoromethyl)phenyl)-4-fluoro-2-(((2R,7aS)-2-fluorotetrahydro-1H-pyrrolizin-7a(5H)-yl)methoxy)-9-methyl-8,9-dihydro-10H-7-oxa-1,3,6,10-tetraazacyclohepta[de]naphthalen-10-yl)ethyl)pyridin-2-amine], the IC50 in test [1] worked out at 0.0002 µM; in test [2] it was 0.0006 µM; in test [3], 0.0003 µM.

For the compound `CC(c1cccnc1N)N1c2nc(OC[C@@]34CCCN3C[C@H](F)C4)nc3c(F)c(-c4cc(N)cc(Cl)c4C(F)(F)F)nc(c23)OC[C@@H]1C` (single isomer, unassigned) [Compound 270, 3-((R or S)-1-((S)-5-(5-amino-3-chloro-2-(trifluoromethyl)phenyl)-4-fluoro-2-(((2R,7aS)-2-fluorotetrahydro-1H-pyrrolizin-7a(5H)-yl)methoxy)-9-methyl-8,9-dihydro-10H-7-oxa-1,3,6,10-tetraazacyclohepta[de]naphthalen-10-yl)ethyl)pyridin-2-amine], the results for the IC50 in test [1], in test [2] and in test [3] were 0.0003 µM, 0.0003 µM and 0.0007 µM, respectively.

As to `CC(c1cccnc1N)N1c2nc(OC[C@@]34CCCN3C[C@H](F)C4)nc3c(F)c(-c4cc(N)cc(Cl)c4C(F)(F)F)nc(c23)OC[C@@H]1C` (single isomer, unassigned) [Compound 271, 3-((R or S)-1-((S)-5-(5-amino-3-chloro-2-(trifluoromethyl)phenyl)-4-fluoro-2-(((2R,7aS)-2-fluorotetrahydro-1H-pyrrolizin-7a(5H)-yl)methoxy)-9-methyl-8,9-dihydro-10H-7-oxa-1,3,6,10-tetraazacyclohepta[de]naphthalen-10-yl)ethyl)pyridin-2-amine], the IC50 is 0.066 µM in test [1], above 0.1 µM in test [2] and above 0.1 µM in test [3].

In the case of `CC(c1cccnc1N)N1c2nc(OC[C@@]34CCCN3C[C@H](F)C4)nc3c(F)c(-c4cc(N)c(F)c(Cl)c4C(F)(F)F)nc(c23)OC[C@@H]1C` (single isomer, unassigned) [Compound 272, 3-((R or S)-1-((S)-5-(5-amino-3-chloro-4-fluoro-2-(trifluoromethyl)phenyl)-4-fluoro-2-(((2R,7aS)-2-fluorotetrahydro-1H-pyrrolizin-7a(5H)-yl)methoxy)-9-methyl-8,9-dihydro-10H-7-oxa-1,3,6,10-tetraazacyclohepta[de]naphthalen-10-yl)ethyl)pyridin-2-amine], the figures for the IC50 in test [1], in test [2] and in test [3] were 0.057 µM, above 0.1 µM and above 0.1 µM, respectively.

In the case of `C#Cc1c(F)ccc2cc(O)cc(-c3nc4c5c(nc(OC[C@@]67CCCN6C[C@H](F)C7)nc5c3F)N(C(C)c3cccnc3N)[C@@H](C)CO4)c12` (single isomer, unassigned) [Compound 273, 4-((S)-10-((R or S)-1-(2-aminopyridin-3-yl)ethyl)-4-fluoro-2-(((2R,7aS)-2-fluorotetrahydro-1H-pyrrolizin-7a(5H)-yl)methoxy)-9-methyl-9,10-dihydro-8H-7-oxa-1,3,6,10-tetraazacyclohepta[de]naphthalen-5-yl)-5-ethynyl-6-fluoronaphthalen-2-ol], the IC50 amounted to 0.0005 µM in test [1], 0.0004 µM in test [2] and 0.001 µM in test [3].

In the case of `C#Cc1c(F)ccc2cc(O)cc(-c3nc4c5c(nc(OC[C@@]67CCCN6C[C@H](F)C7)nc5c3F)N(C(C)c3cccnc3N)[C@@H](C)CO4)c12` (single isomer, unassigned) [Compound 274, 4-((S)-10-((R or S)-1-(2-aminopyridin-3-yl)ethyl)-4-fluoro-2-(((2R,7aS)-2-fluorotetrahydro-1H-pyrrolizin-7a(5H)-yl)methoxy)-9-methyl-9,10-dihydro-8H-7-oxa-1,3,6,10-tetraazacyclohepta[de]naphthalen-5-yl)-5-ethynyl-6-fluoronaphthalen-2-ol], the IC50 was 0.005 µM in test [1], 0.013 µM in test [2] and 0.008 µM in test [3].
